Legend:
Format in all cases: in vivo
[1] = test system: common cocklebur (Xanthium strumarium L.); assay: pre-emergence herbicidal activity, cocklebur; details: 1 kg/Ha, about fourteen days, read-out: pre-emergence herbicidal activity (% control) XANPE
Experimental: (§1) This example sets forth the methods of herbicidal testing conducted on the specific compounds set forth below. Specifically, the compounds referenced below were tested for pre- and post-emergence herbicidal activity using a variety of crops and weeds. The test plants include, but are not limited to, soybean (Glycine max -- var. Winchester), field corn (Zea mays var. Pioneer 3732), wheat (Triticum aestivum var. Lew), morningglory (Ipomea lacunosa or Ipomea hederacea), velvetleaf (Abutilon theophrasti), green foxtail (Setaria viridis), Johnsongrass (Sorghum halepense), blackgrass (Aloepecurus myosuroides), common chickweed (Stellaria media), and common cocklebur (Xanthium strumarium L.).
(§2) In the post-emergence test, seeds of the plant species named above were planted in flats containing the appropriate soil mixture where they were maintained to allow the seeds to germinate. When the plants in these flats reached the proper stage of growth, flats for the pre-emergence tests were planted in a like manner. The flats containing the post-emergence and pre-emergence test plant species were then sprayed with an appropriately concentrated water/acetone solution of test compound. Once treated the flats were maintained, along with untreated controls, for about fourteen days. All treated plants were then examined for phytotoxicity, which was expressed as percent control where 0 is no effect and 100 is complete control. Effective rates of application for the compounds of the present invention range from 0.001 to 3 kg/ha, more likely from […] to 1 Kg/ha.
(§3) Herbicidal activity data at selected application rates are in Tables 4 and 5. The test compounds are identified by numbers correspond to those in Table 1.
(§4) Rate of application of test compound is 1 kg/Ha
(§5) SOY is soybean, WHT is wheat, CRN is corn, ABUTH is velvetleaf, IPOSS is
(§6) morningglory, STEME is chickweed, XANPE is cocklebur, ALOMY is blackgrass, […]

[2] = test system: velvetleaf (Abutilon theophrasti); assay: post-emergence herbicidal activity, velvetleaf; details: 1 Kg/Ha, about fourteen days, read-out: post-emergence herbicidal activity (% control) ABUTH
Experimental: as §1, §2, §3, §5
(§7) morningglory, STEME is chickweed, XANPE is cocklebur, ALOMY is blackgrass,
(§8) Rate of application of test compound is 1 Kg/Ha. The definitions as shown under Table 4 apply to Table 5.

[3] = test system: common cocklebur (Xanthium strumarium L.); assay: post-emergence herbicidal activity, cocklebur; details: 1 Kg/Ha, about fourteen days, read-out: post-emergence herbicidal activity (% control) XANPE
Experimental: as §1, §2, §3, §5, §7, §8

[4] = test system: velvetleaf (Abutilon theophrasti); assay: pre-emergence herbicidal activity, velvetleaf; details: 1 kg/Ha, about fourteen days, read-out: pre-emergence herbicidal activity (% control) ABUTH
Experimental: as §1, §2, §3, §4, §5, §6

[5] = test system: green foxtail (Setaria viridis); assay: pre-emergence herbicidal activity, green foxtail; details: 1 kg/Ha, about fourteen days, read-out: pre-emergence herbicidal activity (% control) SETVI
Experimental: as §1, §2, §3, §4, §5, §6

[6] = test system: wheat (Triticum aestivum var. Lew); assay: post-emergence herbicidal activity, wheat; details: 1 Kg/Ha, about fourteen days, read-out: post-emergence herbicidal activity (% control) WHT
Experimental: as §1, §2, §3, §5, §7, §8

[7] = test system: soybean (Glycine max -- var. Winchester); assay: post-emergence herbicidal activity, soybean; details: 1 Kg/Ha, about fourteen days, read-out: post-emergence herbicidal activity (% control) SOY
Experimental: as §1, §2, §3, §5, §7, §8

[8] = test system: field corn (Zea mays var. Pioneer 3732); assay: post-emergence herbicidal activity, corn; details: 1 Kg/Ha, about fourteen days, read-out: post-emergence herbicidal activity (% control) CRN
Experimental: as §1, §2, §3, §5, §7, §8

[9] = test system: morningglory (Ipomea lacunosa or Ipomea hederacea); assay: pre-emergence herbicidal activity, morningglory; details: Ipomoea, 1 kg/Ha, about fourteen days, read-out: pre-emergence herbicidal activity (% control) IPOSS
Experimental: as §1, §2, §3, §4, §5, §6

[10] = test system: field corn (Zea mays var. Pioneer 3732); assay: pre-emergence herbicidal activity, corn; details: 1 kg/Ha, about fourteen days, read-out: pre-emergence herbicidal activity (% control) CRN
Experimental: as §1, §2, §3, §4, §5, §6

[11] = test system: Johnsongrass (Sorghum halepense); assay: pre-emergence herbicidal activity, johnsongrass; details: 1 kg/Ha, about fourteen days, read-out: pre-emergence herbicidal activity (% control) SORHA
Experimental: as §1, §2, §3, §4, §5, §6

[12] = test system: morningglory (Ipomea lacunosa or Ipomea hederacea); assay: post-emergence herbicidal activity, morningglory; details: Ipomoea, 1 Kg/Ha, about fourteen days, read-out: post-emergence herbicidal activity (% control) IPOSS
Experimental: as §1, §2, §3, §5, §7, §8

[13] = test system: Johnsongrass (Sorghum halepense); assay: post-emergence herbicidal activity, johnsongrass; details: 1 Kg/Ha, about fourteen days, read-out: post-emergence herbicidal activity (% control) SORHA
Experimental: as §1, §2, §3, §5, §7, §8

[14] = test system: blackgrass (Aloepecurus myosuroides); assay: pre-emergence herbicidal activity, blackgrass; details: Alopecurus myosuroides, 1 kg/Ha, about fourteen days, read-out: pre-emergence herbicidal activity (% control) ALOMY
Experimental: as §1, §2, §3, §4, §5, §6

[15] = test system: green foxtail (Setaria viridis); assay: post-emergence herbicidal activity, green foxtail; details: 1 Kg/Ha, about fourteen days, read-out: post-emergence herbicidal activity (% control) SETVI
Experimental: as §1, §2, §3, §5, §7, §8

[16] = test system: soybean (Glycine max -- var. Winchester); assay: pre-emergence herbicidal activity, soybean; details: 1 kg/Ha, about fourteen days, read-out: pre-emergence herbicidal activity (% control) SOY
Experimental: as §1, §2, §3, §4, §5, §6

[17] = test system: wheat (Triticum aestivum var. Lew); assay: pre-emergence herbicidal activity, wheat; details: 1 kg/Ha, about fourteen days, read-out: pre-emergence herbicidal activity (% control) WHT
Experimental: as §1, §2, §3, §4, §5, §6

[18] = test system: common chickweed (Stellaria media); assay: pre-emergence herbicidal activity, chickweed; details: 1 kg/Ha, about fourteen days, read-out: pre-emergence herbicidal activity (% control) STEME
Experimental: as §1, §2, §3, §4, §5, §6

[19] = test system: common chickweed (Stellaria media); assay: post-emergence herbicidal activity, chickweed; details: 1 Kg/Ha, about fourteen days, read-out: post-emergence herbicidal activity (% control) STEME
Experimental: as §1, §2, §3, §5, §7, §8

[20] = test system: blackgrass (Aloepecurus myosuroides); assay: post-emergence herbicidal activity, blackgrass; details: Alopecurus myosuroides, 1 Kg/Ha, about fourteen days, read-out: post-emergence herbicidal activity (% control) ALOMY
Experimental: as §1, §2, §3, §5, §7, §8

Row | Compound | activity at 1000 g/ha [1] | activity at 1000 g/ha [2] | activity at 1000 g/ha [3] | activity at 1000 g/ha [4] | activity at 1000 g/ha [5] | activity at 1000 g/ha [6] | activity at 1000 g/ha [7] | activity at 1000 g/ha [8] | activity at 1000 g/ha [9] | activity at 1000 g/ha [10] | activity at 1000 g/ha [11] | activity at 1000 g/ha [12] | activity at 1000 g/ha [13] | activity at 1000 g/ha [14] | activity at 1000 g/ha [15] | activity at 1000 g/ha [16] | activity at 1000 g/ha [17] | activity at 1000 g/ha [18] | activity at 1000 g/ha [19] | activity at 1000 g/ha [20]
1 | Cn1c(C(F)(F)F)cc(=O)n(-c2c(Cl)cc(Cl)c3c2CN(O)C3=O)c1=O [Compound 16] | 80% | 50% | 30% | 100% | 100% | 20% | 60% | 40% | 65% | 90% | 100% | 20% | 30% | 60% | 30% | 50% | 70% | 5% | – | –
2 | CCON1Cc2c(-n3c(=O)cc(C(F)(F)F)n(C)c3=O)ccc(Cl)c2C1=O [Compound 19] | 100% | 100% | 100% | 100% | 100% | 100% | 100% | 100% | 100% | 100% | 100% | 100% | 100% | – | 100% | 100% | 100% | 100% | 100% | –
3 | C=CCN1Cc2c(-n3c(=O)cc(C(F)(F)F)n(C)c3=O)ccc(Cl)c2C1=O [Compound 20] | 100% | 100% | 100% | 100% | 100% | 100% | 100% | 100% | 100% | 100% | 100% | 100% | 100% | – | 100% | 100% | 100% | 100% | 100% | –
4 | CON1Cc2c(-n3c(=O)cc(C(F)(F)F)n(C)c3=O)ccc(Cl)c2C1=O [Compound 21] | 100% | 100% | 95% | 100% | 100% | 80% | 100% | 80% | 100% | 100% | 100% | 100% | 100% | – | 100% | 100% | 100% | 100% | 100% | –
5 | CCN1Cc2c(-n3c(=O)cc(C(F)(F)F)n(C)c3=O)ccc(Cl)c2C1=O [Compound 22] | 100% | 100% | 100% | 100% | 100% | 100% | 100% | 100% | 100% | 100% | 100% | 100% | 100% | – | 100% | 100% | 100% | 100% | 100% | –
6 | CCn1c(C(F)(F)F)cc(=O)n(-c2ccc(Cl)c3c2CN(C(C)C)C3=O)c1=O [Compound 71] | 100% | 95% | 70% | 100% | 100% | 80% | 90% | 90% | 100% | 100% | – | 95% | – | 90% | 100% | 100% | 100% | 100% | 100% | 100%
7 | CCCn1c(C(F)(F)F)cc(=O)n(-c2ccc(Cl)c3c2CN(C(C)C)C3=O)c1=O [Compound 72] | 40% | 20% | 10% | 40% | 75% | 0% | 60% | 60% | 25% | 70% | – | 10% | – | 30% | 50% | 20% | 30% | 65% | 10% | 10%
8 | CC(C)N1Cc2c(-n3c(=O)cc(C(F)(F)F)n(Cc4ccccc4)c3=O)ccc(Cl)c2C1=O [Compound 73] | 70% | 100% | 75% | 100% | 100% | 50% | 90% | 75% | 40% | 90% | – | 80% | – | 70% | 60% | 95% | 69% | 100% | 100% | 70%
9 | CCOC(=O)Cn1c(C(F)(F)F)cc(=O)n(-c2ccc(Cl)c3c2CN(C(C)C)C3=O)c1=O [Compound 74] | 30% | 20% | 20% | 5% | 5% | 10% | 40% | 30% | 20% | 0% | – | 30% | – | 10% | 10% | 5% | 0% | 10% | 20% | 30%
